Laboratory results: US20260207769A1, “ANTIBODY DRUG CONJUGATES” (YALE UNIVERSITY, priority 2022, published 2026)

Legend:
[1] = test system: DNA damage response proteins; assay: Western blot of DNA damage response proteins in PEO-4 cells; type: cell-based; conditions: 100 nM, 24 and 48 hours
Experimental: (§1) PEO-4 (WT) and PEO-1 (BRCA2^−/−) ovarian cancer cells were treated with 100 nM of SN38, cD31N or cD31N-SN38 and collected at 24 and 48 hours of treatment for Western blot analysis to measure specific protein markers of DNA damage response as previously described.

[2] = test system: DNA damage response proteins; assay: Western blot of DNA damage response proteins in PEO-1 cells; type: cell-based; conditions: 100 nM, 24 and 48 hours
Experimental: as §1

**Q.** With `CCc1c2c(nc3ccc(O)cc13)-c1cc3c(c(=O)n1C2)COC(=O)[C@]3(O)CC` [SN38, SN-38] as the molecule, how does the “protein expression of DNA damage response proteins” value [1] read?
**A.** protein expression of DNA damage response proteins was increased

**Q.** And the “protein expression of DNA damage response proteins” value [2]?
**A.** protein expression of DNA damage response proteins was increased
